Source: patent US10287274B2, “5-hydroxytryptamine receptor 7 activity modulators and their method of use” (TEMPLE UNIVERSITY OF THE COMMONWEALTH SYSTEM OF HIGHER …, priority 2013, dated 2019)

Biological target: Serotonin 5HT7 receptors (Homo sapiens (Human), UniProt P34969)
Assay: Radiolabel Binding Studies for Serotonin 5HT7 receptors
Conditions: read-out: 5-HT7 % inhib @ 10 uM
Method: Radiolabel Binding Studies for Serotonin 5HT7 Receptors, Method 1:
Eleven dilutions (5× assay concentration) of the compound of the disclosure and chlorpromazine are prepared in the Assay Buffer by serial dilution to yield final corresponding assay concentrations ranging from 10 pM to 10 μM.
A stock concentration of 5 nM [^3H]LSD (lysergic acid diethyl amide) is prepared in 50 mM Tris-HCl, 10 mM MgCl2, 1 mM EDTA, pH 7.4 (Assay Buffer). Aliquots (50 μl) of radioligand are dispensed into the wells of a 96-well plate containing 100 μl of Assay Buffer. Duplicate 50-μl aliquots of the compound of the disclosure test and chlorpromazine positive control reference compound serial dilutions are added.
Membrane fractions of cells expressing recombinant 5HT7 receptors (50 μL) are dispensed into each well. […]
The 250-μl reactions are incubated at room temperature for 1.5 hours, then harvested by rapid filtration onto 0.3% polyethyleneimine-treated, 96-well filter mats using a 96-well Filtermate harvester. […] The filter mats are dried, then scintillant is added to the filters and the radioactivity retained on the filters is counted in a Microbeta scintillation counter. […]

Serotonin 5HT7 receptors, sequence (P34969 whole entry): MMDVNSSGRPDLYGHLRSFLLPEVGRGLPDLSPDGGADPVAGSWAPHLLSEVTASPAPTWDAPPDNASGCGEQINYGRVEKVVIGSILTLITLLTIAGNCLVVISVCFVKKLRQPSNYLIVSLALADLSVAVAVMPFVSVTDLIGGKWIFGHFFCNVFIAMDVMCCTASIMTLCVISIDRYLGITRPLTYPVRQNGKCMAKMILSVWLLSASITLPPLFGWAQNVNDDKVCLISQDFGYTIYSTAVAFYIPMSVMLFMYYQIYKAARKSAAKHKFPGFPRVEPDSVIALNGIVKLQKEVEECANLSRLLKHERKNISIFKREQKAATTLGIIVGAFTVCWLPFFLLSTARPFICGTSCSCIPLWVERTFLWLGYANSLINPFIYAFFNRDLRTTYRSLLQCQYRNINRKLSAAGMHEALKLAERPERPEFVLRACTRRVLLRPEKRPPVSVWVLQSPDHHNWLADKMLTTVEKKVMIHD

Compound: CC1(C)CC(CCN2CCN(c3ccccc3C#N)CC2)OC1=O (stereo not shown) [Entry 19]
- inhibition at 10 µM: 85.7%
